# Data published in PubChem BioAssay (NCI).
#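 Compound exposure: 48 hours, 5 concentrations, 96-well plates. Here, GI50 denotes the concentration required for 50% inhibition of growth. TGI: concentration producing complete growth inhibition.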
# Tests used:
# Experiment in all cases: inhibition of tumour cell growth, NCI panel, 48 h
# MOLT-4 leukemia = test system: MOLT-4 leukemia
# NCI-H522 lung = test system: NCI-H522 lung
# U251 CNS = test system: U251 CNS
# SK-MEL-28 melanoma = test system: SK-MEL-28 melanoma
# NCI-H460 lung = test system: NCI-H460 lung
# CCRF-CEM leukemia = test system: CCRF-CEM leukemia
# 786-0 renal = test system: 786-0 renal
# TK-10 renal = test system: TK-10 renal
# HOP-92 NSCLC = test system: HOP-92 NSCLC
# SK-MEL-2 melanoma = test system: SK-MEL-2 melanoma
# SF-539 CNS = test system: SF-539 CNS
# KM12 colon = test system: KM12 colon
# EKVX NSCLC = test system: EKVX NSCLC
# PC-3 prostate = test system: PC-3 prostate
# SN12C renal = test system: SN12C renal
# HT29 colon = test system: HT29 colon
# MCF7 breast = test system: MCF7 breast
# HCC-2998 colon = test system: HCC-2998 colon
# OVCAR-4 ovarian = test system: OVCAR-4 ovarian
# OVCAR-3 ovarian = test system: OVCAR-3 ovarian
# LOX IMVI melanoma = test system: LOX IMVI melanoma
# BT-549 breast = test system: BT-549 breast
# HOP-62 NSCLC = test system: HOP-62 NSCLC
# RXF 393 renal = test system: RXF 393 renal
# COLO 205 colon = test system: COLO 205 colon
# SK-OV-3 ovarian = test system: SK-OV-3 ovarian
# SK-MEL-5 melanoma = test system: SK-MEL-5 melanoma
# SW-620 colon = test system: SW-620 colon
# NCI-H23 lung = test system: NCI-H23 lung
# NCI-H226 lung = test system: NCI-H226 lung
# HS 578T breast = test system: HS 578T breast
# A498 renal = test system: A498 renal
# HCT-15 colon = test system: HCT-15 colon
# SNB-19 CNS = test system: SNB-19 CNS
# CAKI-1 renal = test system: CAKI-1 renal
# UO-31 renal = test system: UO-31 renal
# SF-268 CNS = test system: SF-268 CNS
# IGROV1 ovarian = test system: IGROV1 ovarian
# OVCAR-8 ovarian = test system: OVCAR-8 ovarian
# MDA-MB-231 breast = test system: MDA-MB-231 breast
# SF-295 CNS = test system: SF-295 CNS
# HCT-116 colon = test system: HCT-116 colon
# ACHN renal = test system: ACHN renal
# MDA-MB-435 = test system: MDA-MB-435
# M14 melanoma = test system: M14 melanoma
# A549 NSCLC = test system: A549 NSCLC
# T-47D breast = test system: T-47D breast
# OVCAR-5 ovarian = test system: OVCAR-5 ovarian
# UACC-62 melanoma = test system: UACC-62 melanoma
# UACC-257 melanoma = test system: UACC-257 melanoma
# RPMI-8226 leukemia = test system: RPMI-8226 leukemia
# DU-145 prostate = test system: DU-145 prostate
# SNB-75 CNS = test system: SNB-75 CNS
# MALME-3M melanoma = test system: MALME-3M melanoma
# NCI/ADR-RES ovarian = test system: NCI/ADR-RES ovarian
compound,measurement,setting,value
COC(=O)[C@@]1(C)CCC[C@]2(C)[C@H]3Cc4occc4[C@H](C)[C@@H]3CC[C@@]12O,GI50,MOLT-4 leukemia,17.3 µM
same,TGI,MOLT-4 leukemia,80.3 µM
same,GI50,NCI-H522 lung,31.4 µM
same,TGI,NCI-H522 lung,98.5 µM
same,GI50,U251 CNS,18.1 µM
same,TGI,U251 CNS,44 µM
same,GI50,SK-MEL-28 melanoma,> 100 µM
same,TGI,SK-MEL-28 melanoma,> 100 µM
same,GI50,NCI-H460 lung,16.3 µM
same,TGI,NCI-H460 lung,49.2 µM
same,GI50,CCRF-CEM leukemia,37.2 µM
same,TGI,CCRF-CEM leukemia,> 100 µM
same,GI50,786-0 renal,45.8 µM
same,TGI,786-0 renal,> 100 µM
same,GI50,TK-10 renal,24.5 µM
same,TGI,TK-10 renal,> 100 µM
same,GI50,HOP-92 NSCLC,13.4 µM
same,TGI,HOP-92 NSCLC,57.9 µM
same,GI50,SK-MEL-2 melanoma,26.8 µM
same,TGI,SK-MEL-2 melanoma,72.4 µM
same,GI50,SF-539 CNS,19.9 µM
same,TGI,SF-539 CNS,40.2 µM
same,GI50,KM12 colon,16 µM
same,TGI,KM12 colon,32.8 µM
same,GI50,EKVX NSCLC,27.7 µM
same,TGI,EKVX NSCLC,71.3 µM
same,GI50,PC-3 prostate,26.1 µM
same,TGI,PC-3 prostate,> 100 µM
same,GI50,SN12C renal,21.1 µM
same,TGI,SN12C renal,48 µM
same,GI50,HT29 colon,20.9 µM
same,TGI,HT29 colon,> 100 µM
same,GI50,MCF7 breast,18.2 µM
same,TGI,MCF7 breast,> 100 µM
same,GI50,HCC-2998 colon,34.3 µM
same,TGI,HCC-2998 colon,89.7 µM
same,GI50,OVCAR-4 ovarian,92.3 µM
same,TGI,OVCAR-4 ovarian,> 100 µM
same,GI50,OVCAR-3 ovarian,17.3 µM
same,TGI,OVCAR-3 ovarian,59 µM
same,GI50,LOX IMVI melanoma,18.4 µM
same,TGI,LOX IMVI melanoma,42.6 µM
same,GI50,BT-549 breast,26.9 µM
same,TGI,BT-549 breast,70.5 µM
same,GI50,HOP-62 NSCLC,33.7 µM
same,TGI,HOP-62 NSCLC,> 100 µM
same,GI50,RXF 393 renal,25 µM
same,TGI,RXF 393 renal,93.1 µM
same,GI50,COLO 205 colon,33.1 µM
same,TGI,COLO 205 colon,> 100 µM
same,GI50,SK-OV-3 ovarian,> 100 µM
same,TGI,SK-OV-3 ovarian,> 100 µM
same,GI50,SK-MEL-5 melanoma,21.1 µM
same,TGI,SK-MEL-5 melanoma,37.4 µM
same,GI50,SW-620 colon,44.1 µM
same,TGI,SW-620 colon,> 100 µM
same,GI50,NCI-H23 lung,45.3 µM
same,TGI,NCI-H23 lung,> 100 µM
same,GI50,NCI-H226 lung,20.9 µM
same,TGI,NCI-H226 lung,64.7 µM
same,GI50,HS 578T breast,20.1 µM
same,TGI,HS 578T breast,41.4 µM
same,GI50,A498 renal,17.9 µM
same,TGI,A498 renal,46.6 µM
same,GI50,HCT-15 colon,73.5 µM
same,TGI,HCT-15 colon,> 100 µM
same,GI50,SNB-19 CNS,95.5 µM
same,TGI,SNB-19 CNS,> 100 µM
same,GI50,CAKI-1 renal,41.8 µM
same,TGI,CAKI-1 renal,> 100 µM
same,GI50,UO-31 renal,37.5 µM
same,TGI,UO-31 renal,> 100 µM
same,GI50,SF-268 CNS,34 µM
same,TGI,SF-268 CNS,> 100 µM
same,GI50,IGROV1 ovarian,30 µM
same,TGI,IGROV1 ovarian,> 100 µM
same,GI50,OVCAR-8 ovarian,35 µM
same,TGI,OVCAR-8 ovarian,> 100 µM
same,GI50,MDA-MB-231 breast,32.4 µM
same,TGI,MDA-MB-231 breast,> 100 µM
same,GI50,SF-295 CNS,21.1 µM
same,TGI,SF-295 CNS,66.8 µM
same,GI50,HCT-116 colon,17.6 µM
same,TGI,HCT-116 colon,42.5 µM
same,GI50,ACHN renal,17.8 µM
same,TGI,ACHN renal,50.2 µM
same,GI50,MDA-MB-435,16.7 µM
same,TGI,MDA-MB-435,38.7 µM
same,GI50,M14 melanoma,28.6 µM
same,TGI,M14 melanoma,> 100 µM
same,GI50,A549 NSCLC,34.4 µM
same,TGI,A549 NSCLC,> 100 µM
same,GI50,T-47D breast,26.4 µM
same,TGI,T-47D breast,> 100 µM
same,GI50,OVCAR-5 ovarian,73.7 µM
same,TGI,OVCAR-5 ovarian,> 100 µM
same,GI50,UACC-62 melanoma,17.5 µM
same,TGI,UACC-62 melanoma,> 100 µM
same,GI50,UACC-257 melanoma,35.6 µM
same,TGI,UACC-257 melanoma,> 100 µM
same,GI50,RPMI-8226 leukemia,17.9 µM
same,TGI,RPMI-8226 leukemia,> 100 µM
same,GI50,DU-145 prostate,58.7 µM
same,TGI,DU-145 prostate,> 100 µM
same,GI50,SNB-75 CNS,55.6 µM
same,TGI,SNB-75 CNS,> 100 µM
same,GI50,MALME-3M melanoma,21.3 µM
same,TGI,MALME-3M melanoma,52.4 µM
same,GI50,NCI/ADR-RES ovarian,68.4 µM
same,TGI,NCI/ADR-RES ovarian,> 100 µM
